In patent US11058680B2, “Combinations of opioid/TLR4 antagonists and acetaminophen for use in the treatment of emotional pain and insomnia” (Allodynic Threapeutics, LLC, priority 2016, dated 2021):

Experiments:
[1] = tested on: patients with low back pain (LBP); test: Naltrexone/acetaminophen open-label pilot study for low back pain, daily patient diary (WPI, API, WEP, PRSI, insomnia, PGIC, energy, activity); assay type: in vivo, human
Description: Twenty patients of whom 16 had chronic low back pain (CLBP), three had acute LBP and one had pain due to Temporomandibular disorders (TMD) were evaluated in an open label pilot study. […] The patient reported diary questionnaire included the following questions.
Question No. 1: Choose one number that best describes the “Worst Pain” in your lower back in the last 24 hours (WPI) [measured on an 11-point NRS (0=no pain, 10=worst pain possible)].
Question No. 2: Choose one number that best describes the “Average Pain” in your lower back in the last 24 hours (API) [measured on an 11-point NRS (0=no pain, 10=worst pain possible)].
Question No. 3: Choose one number that best describes the “Worst Emotional Pain” you experienced in the last 24 hours. (E.g., “Today, I experienced hurt feelings, and/or anger, and/or fear, and/or sadness”).
Question No. 4: Choose one number that best describes how pain has interfered with your sleep in the last 24 hours [Pain Related Sleep Interference (PRSI) measured on an 11-point NRS (0=no interference, 10=complete interference)].
Question No. 5: Have you experienced difficulty sleeping or falling asleep (insomnia) in the last 24 hours [measured on an 11-point NRS (0=no insomnia, 10=worst insomnia possible)].

[2] = tested on: patient with lower back pain and emotional pain due to conflict at work; test: Example 7 case study; assay type: in vivo, human; details: acetaminophen 4 times, one day, naltrexone 2.25 mg and Tylenol 325 mg twice daily
[3] = tested on: patient with chronic low back pain, tendinitis and fear from a near airplane crash; test: Example 5 case study; assay type: in vivo, human; details: acetaminophen and ibuprofen prior to study; naltrexone 2.25 mg and acetaminophen 325 mg Q.I.D
[4] = tested on: patient with lower back and leg pain and emotional pain due to separation from a child; test: Example 12 case study, patient diary; details: for API, average pain intensity (0-10 NRS) / Insomnia (0-10 NRS) / PRSI, Pain Related Sleep Interference (0-10 NRS) / WEP, Worst Emotional Pain (0-10 NRS) / WPI, Worst Pain Intensity (0-10 NRS): Ibuprofen 800 mg T.I.D. PRN 2006-2010
[5] = tested on: patient with lower back pain and emotional pain due to anger with poorly-performing employees; test: Example 10 case study, patient diary; assay type: in vivo, human
Excerpt: A person building contractor with a history of lower back pain reported emotional pain due to frustration with their three employees' poor job performance. […] Treatment with naltrexone and acetaminophen eliminated their physical, as well as their emotional pain, which happened overnight.

[6] = tested on: patient with emotional pain due to severe pain caused by acute spinal disk herniation; test: Example 6 case study, patient diary; assay type: in vivo, human
Description: They scheduled an elective inguinal hernia surgery during a time that they had already planned time off from work for their spouse and themself. […] The day after the incident, they took acetaminophen 3000 mg. […] They were in the process of purchasing a home, which they found stressful.

[7] = tested on: patient with emotional pain due to football team losses and low back pain; test: Example 4 case study, patient diary; assay type: in vivo, human
[8] = tested on: patient with emotional pain due to relationship break-up; test: Example 11 case study, patient diary; assay type: in vivo, human; details: APAP 325 mg Q.I.D., Sep. 25-Oct. 2, 2015
[9] = tested on: patient with emotional pain due to adjustment disorder, grieving passing of a pet; test: Example 2 case study, emotional pain diary on 4-point scale (0=none, 1=mild, 2=moderate, 3=severe); assay type: in vivo, human; details: xanax before study treatment
Excerpt: The patient experienced a stressful life event (bereavement) that interfered with social functioning. […] The emotional pain intensity was rated on a 4-point unipolar scale (0=none, 1=mild, 2=moderate, 3=severe).

migraine = details: literature, Brandes et al. JAMA 2007; cited from earlier work
[10] = on treatment, last day, APAP 325 mg alone (N = 8, avg 9.83 days), NTX/APAP 2.25/325 mg (n = 18, avg 25.4 days)
[11] = treatment period, APAP 325 mg alone, NTX/APAP 2.25/325 mg
[12] = Naltrexone 2.25 mg Q.I.D./Clonidine 0.025 mg Q.I.D. 2010-2015, APAP 325 mg Q.I.D. Jun. 29-Jul. 6, 2015, Naltrexone 2.5 mg Q.I.D. to Jul. 8, 2015, Naltrexone 2.25 mg/APAP 325 mg Q.I.D. Jul. 9-Oct. 4, 2015
[13] = APAP 325 mg Q.I.D., Sep. 29-Oct. 1, 2015
[14] = acetaminophen for three days, naltrexone and acetaminophen, overnight
[15] = APAP 1000 mg TID, Aug. 18-19, 2015
[16] = acetaminophen 3000 mg, the day after the incident
[17] = APAP 325 mg Q.I.D. Jun. 29-Jul. 8, 2015, NTX 2.25 mg/APAP 325 mg Q.I.D. Jul. 9-Aug. 9, 2015
[18] = APAP 325 mg Q.I.D., NTX 2.25 mg/APAP 325 mg Q.I.D.

CC(=O)Nc1ccc(O)cc1 [acetaminophen]
API Avg., average pain intensity (0-10 NRS) [1, 10]: 4.25
Activity Avg., change in activity level (1-7 Likert) [1, 10]: 4.67
Energy Avg., change in energy level (1-7 Likert) [1, 10]: 4.67
Insomnia Avg. (0-10 NRS) [1, 10]: 4.33
PGIC Avg., Patient Global Impression of Change (1-7 Likert, 7 = very much improved) [1, 10]: 5.00
PRSI Avg., Pain Related Sleep Interference (0-10 NRS) [1, 10]: 4.00
WEP Avg., Worst Emotional Pain (0-10 NRS) [1, 10]: 5.17
WPI Avg., Worst Pain Intensity (0-10 NRS) [1, 10]: 5.25
Mean Improvement from Baseline, API (0-10 NRS) [1, 11]: 1.28
Mean Improvement from Baseline, Insomnia (0-10 NRS) [1, 11]: −0.23
Mean Improvement from Baseline, PRSI (0-10 NRS) [1, 11]: 0.90
Mean Improvement from Baseline, WEP (0-10 NRS) [1, 11]: 0.14
Mean Improvement from Baseline, WPI (0-10 NRS) [1, 11]: 1.43
emotional pain (patient report) [2]: did not notice a change
back pain (patient report) ([2]; within three days): slight improvement
relief of physical pain (low back, foot) [3]: without significant relief
API, average pain intensity (0-10 NRS) [4, 12]: 3.5
Insomnia (0-10 NRS) [4, 12]: 5.5
PRSI, Pain Related Sleep Interference (0-10 NRS) [4, 12]: 4.5
WEP, Worst Emotional Pain (0-10 NRS) [4, 12]: 5.0
WPI, Worst Pain Intensity (0-10 NRS) [4, 12]: 4.5
PGIC (1-7 Likert) [4, 12]: 5
emotional pain due to separation from child (patient report) ([4]; naltrexone/clonidine, acetaminophen 325 mg four times daily 5 days, naltrexone alone 12 days, naltrexone 2.25 mg and acetaminophen 325 mg four times daily almost three months): same level of emotional pain
API, average pain intensity (0-10 NRS) [5, 13]: 2.5
Insomnia (0-10 NRS) [5, 13]: 2
PGIC (1-7 Likert) [5, 13]: 5
PRSI, Pain Related Sleep Interference (0-10 NRS) [5, 13]: 4
WEP, Worst Emotional Pain (0-10 NRS) [5, 13]: 3
WPI, Worst Pain Intensity (0-10 NRS) [5, 13]: 4
back/physical pain (patient report) [5, 14]: improved their back pain
emotional pain (patient report) [5, 14]: remained unchanged
API, average pain intensity (0-10 NRS) [6, 15]: 8
Insomnia (0-10 NRS) [6, 15]: 9
PGIC (1-7 Likert) [6, 15]: 5
PRSI, Pain Related Sleep Interference (0-10 NRS) [6, 15]: 9
WEP, Worst Emotional Pain (0-10 NRS) [6, 15]: 6
WPI, Worst Pain Intensity (0-10 NRS) [6, 15]: 9
emotional pain (NRS) [6, 16]: 6 /10
insomnia improved by [6, 16]: 1 point
pain level improved by [6, 16]: 1 point
API, average pain intensity (0-10 NRS) [7, 17]: 3
Insomnia (0-10 NRS) [7, 17]: 0
PRSI, Pain Related Sleep Interference (0-10 NRS) [7, 17]: 0
WEP, Worst Emotional Pain (0-10 NRS) [7, 17]: 2
WPI, Worst Pain Intensity (0-10 NRS) [7, 17]: 3
Improvement from baseline, API [7, 18]: 25%
Improvement from baseline, WEP [7, 18]: 33%
Improvement from baseline, WPI [7, 18]: 40%
ability to handle emotional disturbance due to team losses ([7]; Tylenol 325 mg, 4 times daily for 10 days): did not report improvement
elimination/reduction of emotional and physical pain symptoms ([7]; naltrexone and acetaminophen for one month, acetaminophen alone): 25%-40%
API, average pain intensity (0-10 NRS) [8]: 5
Insomnia (0-10 NRS) [8]: 10
PGIC (1-7 Likert) [8]: 5
PRSI, Pain Related Sleep Interference (0-10 NRS) [8]: 3.5
WEP, Worst Emotional Pain (0-10 NRS) [8]: 10
WPI, Worst Pain Intensity (0-10 NRS) [8]: 7

Cc1nnc2n1-c1ccc(Cl)cc1C(c1ccccc1)=NC2 [xanax]
relief of emotional pain (patient report) [9]: did not help

CC(C)Cc1ccc(C(C)C(=O)O)cc1 (stereo not shown) [Ibuprofen]
relief of physical pain (low back, foot) [3]: without significant relief
API, average pain intensity (0-10 NRS) [4, 12]: 5.5
Insomnia (0-10 NRS) [4, 12]: 9
PRSI, Pain Related Sleep Interference (0-10 NRS) [4, 12]: 7
WEP, Worst Emotional Pain (0-10 NRS) [4, 12]: 7
WPI, Worst Pain Intensity (0-10 NRS) [4, 12]: 6

CNS(=O)(=O)Cc1ccc2[nH]cc(CCN(C)C)c2c1 [sumatriptan]
2-hour headache (migraine) pain-free (migraine): 25%
